From PubChem BioAssay AID268 (DTP/NCI, 2004)
Values joined by “and” are separate entries in the source; they are usually repeats but may differ in a detail not shown here. Equal entries are not always repeated.

System: CD2F1 mice, P1798 lymphosarcoma sc, tumor weight T/C
Experiment: NCI In Vivo Anticancer Drug Screen. Data for tumor model P1798 Lymphosarcoma (subcutaneous) in CD2F1 (CDF1) mice
Conditions: endpoint: mean tumor weight, higher = larger tumour
Description: The antitumor activity of compounds was measured in mice bearing transplantable tumors. Survival or tumor size were measured and the results are expressed as the measurement made in the treated group (T) divided by the measurement made in the vehicle treated control group (C). The tumor model used in this assay is P1798 Lymphosarcoma (subcutaneous) in CD2F1 (CDF1) mice

[1] = dose: 125.0 mg/kg/injection, schedule: Q01DX010 (sc), vehicle: steriod suspending solution
[2] = dose: 250.0 mg/kg/injection, schedule: Q01DX010 (sc), vehicle: steriod suspending solution
[3] = dose: 500.0 mg/kg/injection, schedule: Q01DX010 (sc), vehicle: steriod suspending solution
[4] = dose: 16.0 mg/kg/injection, schedule: Q01DX010 (ip), vehicle: saline
[5] = dose: 64.0 mg/kg/injection, schedule: Q01DX010 (ip), vehicle: saline
[6] = dose: 12.5 mg/kg/injection, schedule: Q01DX010 (sc), vehicle: steriod suspending solution
[7] = dose: 25.0 mg/kg/injection, schedule: Q01DX010 (sc), vehicle: steriod suspending solution

For CC1(O)CCC2C3CCC4=CC(=O)CCC4C3CCC21C (configuration not stated), the T/C [1] was 83 % of control, the T/C [2] was 81 % of control and the T/C [3] was 80 % of control. For the same compound, the T/C (dose: 1000.0 mg/kg/injection, schedule: Q01DX010 (sc), vehicle: steriod suspending solution) was 67 % of control.
For CN(Cc1cnc2nc(N)nc(N)c2n1)c1c(Cl)cc(C(=O)NC(CCC(=O)O)C(=O)O)cc1Cl (configuration not stated), the T/C (dose: 10.0 mg/kg/injection, schedule: Q01DX010 (ip), vehicle: saline) was 33 % of control and the T/C (dose: 20.0 mg/kg/injection, schedule: Q01DX010 (ip), vehicle: saline) was 12 % of control.
For [N-]=[N+]=CC(=O)CCC(N)C(=O)O (configuration not stated), the T/C (dose: 0.01 mg/kg/injection, schedule: Q01DX010 (ip), vehicle: saline) was 102 % of control, the T/C (dose: 0.03 mg/kg/injection, schedule: Q01DX010 (ip), vehicle: saline) was 89 % of control and the T/C (dose: 0.05 mg/kg/injection, schedule: Q01DX010 (ip), vehicle: saline) was 100 % of control. For the same compound, the T/C (dose: 0.1 mg/kg/injection, schedule: Q01DX010 (ip), vehicle: saline) was 108 % of control.
For CN1CC[C@]23c4c5ccc(O)c4O[C@H]2C(=O)CC[C@H]3[C@H]1C5, the T/C (dose: 8.0 mg/kg/injection, schedule: Q01DX010 (ip), vehicle: saline) was 94 % of control and 80 % of control, the T/C [4] was 76 % of control and 79 % of control and the T/C (dose: 32.0 mg/kg/injection, schedule: Q01DX010 (ip), vehicle: saline) was 74 % of control and 85 % of control. The T/C [5] was 93 % of control and 70 % of control.
In the case of NC(N)=NCCCC(N)C(=O)NCCCCCCCCCCNC(=O)C(N)CCCN=C(N)N (configuration not stated), the T/C (dose: 6.25 mg/kg/injection, schedule: Q01DX010 (ip), vehicle: saline) was 103 % of control, the T/C (dose: 12.5 mg/kg/injection, schedule: Q01DX010 (ip), vehicle: saline) was 110 % of control and the T/C (dose: 25.0 mg/kg/injection, schedule: Q01DX010 (ip), vehicle: saline) was 78 % of control. The T/C (dose: 50.0 mg/kg/injection, schedule: Q01DX010 (ip), vehicle: saline) was 99 % of control.
CC(=O)NC1=C(N2CC2)C(=O)C(NC(C)=O)=C(N2CC2)C1=O was tested, and the T/C (dose: 0.25 mg/kg/injection, schedule: Q01DX010 (ip), vehicle: saline) was 86 % of control and the T/C (dose: 0.5 mg/kg/injection, schedule: Q01DX010 (ip), vehicle: saline) was 45 % of control.
With C=C1C[C@H]2[C@@H]3C=C(C)C4=CC(=O)CC[C@]4(C)[C@H]3CC[C@]2(C)[C@@]1(OC(C)=O)C(C)=O the T/C [6] was 109 % of control and 116 % of control, the T/C [7] was 84 % of control and the T/C (dose: 50.0 mg/kg/injection, schedule: Q01DX010 (sc), vehicle: steriod suspending solution) was 120 % of control. The T/C (dose: 125.0 mg/kg/injection, schedule: Q01DX001 (sc), vehicle: steriod suspending solution) was 87 % of control, the T/C [1] was 124 % of control and the T/C (dose: 125.0 mg/kg/injection, schedule: Q02DX005 (sc), vehicle: steriod suspending solution) was 117 % of control. For the same compound, the T/C (dose: 250.0 mg/kg/injection, schedule: Q01DX001 (sc), vehicle: steriod suspending solution) was 151 % of control and 160 % of control, the T/C [2] was 76 % of control and the T/C (dose: 250.0 mg/kg/injection, schedule: Q02DX005 (sc), vehicle: steriod suspending solution) was 110 % of control. For the same compound, the T/C (dose: 500.0 mg/kg/injection, schedule: Q01DX001 (sc), vehicle: steriod suspending solution) was 74 % of control and 80 % of control, the T/C [3] was 85 % of control and the T/C (dose: 500.0 mg/kg/injection, schedule: Q02DX005 (sc), vehicle: steriod suspending solution) was 96 % of control. For the same compound, the T/C (dose: 1000.0 mg/kg/injection, schedule: Q01DX001 (sc), vehicle: steriod suspending solution) was 100 % of control and 112 % of control.
For Nc1nc(N)c2nc(CNc3ccc(C(=O)NC(CCC(=O)O)C(=O)O)cc3)cnc2n1 (configuration not stated), the T/C (dose: 50.0 micrograms/kg/injection, schedule: Q01DX010 (ip), vehicle: other) was 110 % of control, the T/C (dose: 100.0 micrograms/kg/injection, schedule: Q01DX010 (ip), vehicle: other) was 100 % of control and the T/C (dose: 200.0 micrograms/kg/injection, schedule: Q01DX010 (ip), vehicle: other) was 79 % of control.
For Nc1nc(SCc2ccccc2)c2[nH]cnc2n1, the T/C [4] was 86 % of control and the T/C [5] was 90 % of control.
In the case of CC(=O)O[C@]1(C(C)=O)CC[C@H]2[C@@H]3C[C@H](C)C4=CC(=O)C=C[C@]4(C)[C@@]3(F)[C@@H](O)C[C@@]21C, the T/C (dose: 12.5 mg/kg/injection, schedule: Q01DX005 (sc), vehicle: steriod suspending solution) was 32 % of control, the T/C [6] was 37 % of control and 39 % of control and the T/C (dose: 25.0 mg/kg/injection, schedule: Q01DX005 (sc), vehicle: steriod suspending solution) was 13 % of control. For the same compound, the T/C [7] was 15 % of control and 16 % of control and 36 % of control, the T/C (dose: 25.0 mg/kg/injection, schedule: Q02DX010 (sc), vehicle: steriod suspending solution) was 105 % of control and the T/C (dose: 50.0 mg/kg/injection, schedule: Q01DX005 (sc), vehicle: steriod suspending solution) was 1 % of control. For the same compound, the T/C (dose: 50.0 mg/kg/injection, schedule: Q02DX010 (sc), vehicle: steriod suspending solution) was 101 % of control, the T/C (dose: 100.0 mg/kg/injection, schedule: Q01DX005 (sc), vehicle: steriod suspending solution) was 3 % of control and the T/C (dose: 100.0 mg/kg/injection, schedule: Q02DX010 (sc), vehicle: steriod suspending solution) was 105 % of control.
